# How the values were obtained:
# Sirt1 = test: Western blot of Sirt1 in hASC cells; format: cell-based, human; conditions: 8 μM Naringenin, 30 μM Nicotinamide Riboside or the combination, 6 days
# Method: (§1) Human adipose derived stem cells (hASC, LaCell, L.L.C., New Orleans, La.) from two different female overweight (BMI=26) donors were plated at a density of 10000 cells/cm^2 on 96-well plates and 24-well plates in preadipocyte medium (HyClone DMEM/F12 1:1, 10% fetal bovine serum (FBS), 1% Antibiotic/Antimycotic (Penicillin/Streptomycin/amphotericin)) at 37° C. in 5% CO2. One day after reaching confluence, preadipocytes were induced to differentiate with a differentiation medium consisting of 70% Gibco DMEM (high glucose 4.5 g/L), 30% HyClone DMEM/F12 1:1 (3 g/L glucose), 3% FBS, 1% Antibiotic/Antimycotic, 1 μM Dexamethasone, 33 μM Biotin, 100 nM Insulin, 20 μM Pantothenate, 5 μM Rosiglitazone, 500 μM IBMX. […]
# (§2) The Phospho-AMPKα (Thr172)-, AMPK- and Sirt1—antibody was obtained from Cell Signaling (Danvers, Mass.). hASC cells were grown on 24-well plates and treated as indicated. Proteins were extracted by using standard protocols and measured by BCA kit (Thermo Scientific). […] Visualization and chemiluminescent detection was conducted using BioRad ChemiDoc instrumentation and software (Bio-Rad Laboratories, Hercules, Calif.) and band intensity was assessed using Image Lab 4.0 (Bio-Rad Laboratories, Hercules, Calif.), with correction for background. […]
# hASC cells = test: Fatty acid oxidation (Seahorse) oxygen consumption; format: cell-based, human; conditions: Seahorse XF 24; palmitate 200 μM; 8 μM Naringenin or combination with 30 μM NR
# Method: as §1, with “IBMX. Preadipocytes were maintained in this differentiation medium for 4 to 5 days and subsequently cultured in maintenance medium (70% Gibco DMEM high glucose, 30% HyClone DMEM/F12 1:1, 3% FBS, 1% Antibiotic/Antimycotic, 1 μM Dexamethasone, 33 μM Biotin, 100 nM Insulin, 20 μM Pantothenate) (=day 0 for experiments).” for “IBMX.”
# The palmitate-stimulated oxygen consumption rate was measured with the XF 24 analyzer (Seahorse Bioscience, Billerica, Mass., USA) Cells were seeded and differentiated as described above. […] Data for each sample were normalized to the pre-palmitate injection baseline for that sample and expressed as % change from that baseline. […] All data are expressed as mean±SEM. […]
# UCP1 = UCP1 gene expression by qRT-PCR in hASC cells; format: cell-based, human; conditions: 8 μM Naringenin, 30 μM Nicotinamide Riboside or the combination, 6 days
# Method: (§3) Human adipose derived stem cells (hASC, LaCell, L.L.C., New Orleans, La.) from two different female overweight (BMI=26) donors were plated at a density of 10000 cells/cm^2 on 96-well plates and 24-well plates in preadipocyte medium (HyClone DMEM/F12 1:1, 10% fetal bovine serum (FBS), 1% Antibiotic/Antimycotic (Penicillin/Streptomycin/amphotericin)) at 37° C. in 5% CO2. […]
# (§4) hASC cells were grown in a 96-well plate and treated as indicated. […] Gene expression was assessed by quantitative real-time polymerase chain reaction (qRT-PCR) using StepOnePlus™ PCR system (Thermo Fisher Scientific) and TaqMan Gene expression assays for UCP1 (Invitrogen, assay ID # Hs01084772_m1), Glut 4 (Invitrogen, assay ID # Hs00168966_m1), CPT1b (Invitrogen, assay ID # Hs0046298_s1), PRDM16 (Invitrogen, assay ID # Hs00223161_m1), AdipoQ (Invitrogen, assay ID # HS00605917_m1), ChREBP (Invitrogen, assay ID # HS00975714_m1), ATGL (Invitrogen, assay ID # Hs00982042), and RPL13A (Invitrogen, assay ID #Hs04194366_g1) as endogenous control.
# (§5) Results were combined and calculated as fold changes of Control and represented as mean±SEM.
# p-AMPK = test: Western blot of p-AMPK in hASC cells; format: cell-based, human; conditions: 8 μM Naringenin, 30 μM Nicotinamide Riboside or the combination, 6 days
# Method: as §1, §2
# ATGL = ATGL gene expression by qRT-PCR in hASC cells; format: cell-based, human; conditions: 8 μM Naringenin, 30 μM Nicotinamide Riboside or the combination, 6 days
# Method: as §3, §4
# Results were combined and calculated as fold changes of Control and represented as mean±SEM. […]
# PRDM16 = PRDM16 gene expression by qRT-PCR in hASC cells; format: cell-based, human; conditions: 8 μM Naringenin, 30 μM Nicotinamide Riboside or the combination, 6 days
# Method: as §3, §4, §5
# CPT1b = CPT1b gene expression by qRT-PCR in hASC cells; format: cell-based, human; conditions: 8 μM Naringenin, 30 μM Nicotinamide Riboside or the combination, 6 days
# Method: as §3, §4, §5
# Glut4 = Glut4 gene expression by qRT-PCR in hASC cells; format: cell-based, human; conditions: 8 μM Naringenin, 30 μM Nicotinamide Riboside or the combination, 6 days
# Method: as §3, §4, §5
# ChREBP = ChREBP gene expression by qRT-PCR in hASC cells; format: cell-based, human; conditions: 8 μM Naringenin, 30 μM Nicotinamide Riboside or the combination, 6 days
# Method: as §3, §4, §5
# AdipoQ = AdipoQ gene expression by qRT-PCR in hASC cells; format: cell-based, human; conditions: 8 μM Naringenin, 30 μM Nicotinamide Riboside or the combination, 6 days
# Method: as §3, §4, §5
# intracellular NAD+ = conditions: human and animal data (background); cited from earlier work
Structure (SMILES),Sirt1 protein expression (Sirt1),increase in both basal and palmitate-induced oxygen consumption (fatty acid oxidation) (hASC cells),"UCP1 expression, fold changes of Control (UCP1)",p-AMPK protein expression (p-AMPK),"ATGL expression, fold changes of Control (ATGL)","PRDM16 expression, fold changes of Control (PRDM16)","CPT1b expression, fold changes of Control (CPT1b) [fold]","Glut4 expression, fold changes of Control (Glut4)","ChREBP expression, fold changes of Control (ChREBP)","AdipoQ expression, fold changes of Control (AdipoQ)",increase in NAD+ resulting from administration (intracellular NAD+) [%]
"O=C1C[C@@H](c2ccc(O)cc2)Oc2cc(O)cc(O)c21 [naringenin, Naringenin]",significantly increased,30-40%,~12 fold,significantly increased,two-fold,significantly upregulated,~2.4,two-fold,two-fold,modestly but significantly increased,
"NC(=O)c1ccc[n+]([C@@H]2O[C@H](CO)[C@@H](O)[C@H]2O)c1 [NR, Nicotinamide Riboside]",no significant effect,,no independent effect,no significant effect,,significantly upregulated,~2.4,no independent effect,two-fold,no significant effect,~40
"NC(=O)c1ccc[n+]([C@@H]2O[C@H](COP(=O)([O-])O)[C@@H](O)[C@H]2O)c1 [NMN, Nicotinamide mononucleotide]",,,,,,,,,,,~40
